“And” between values parts separate entries of the source, which are not always exact repeats. Identical values can stand only once.
System: NMC-A β-lactamase reporter (C69X)
Assay: NMC-A β-lactamase reporter assay (ampicillin resistance by amber suppression with selenocysteine)
Type: cell-based, E. coli DHΔabc
Details: DHΔabc; for ampicillin concentration supporting growth (β-lactamase activity): NMC-A C69X reporter, co-expressed with SelA
Text: A method of genetic selection capable of discriminating different levels of selenocysteine incorporation was developed. To specifically ‘addict’ a reporter protein to selenocysteine rather than serine, the NMC-A β-lactamase from Enterobacter cloacae was used. […] Then cysteine 69 was replaced with an amber stop codon (X69; FIG. 1a) for library selection, hypothesizing that the incorporation of selenocysteine and the formation of a selenyl-sulfhydryl bond would restore activity. (Swardn et al., 1998)
To eliminate any crosstalk between the tRNA^Sec library and the endogenous selenocysteine incorporation machinery, the selA, selB and selC genes (encoding SelA, SelB and tRNA^Sec respectively) were deleted from E. coli DH10B (designated DHΔabc). Cells containing the reporter plasmid pNMC-A C69X and the accessory plasmid pRSF-eSelA (expressing SelA) were transformed with plasmid pMB1-ZU containing the tRNA^Sec antideterminant library. Transformants were plated on media containing a gradient of ampicillin concentrations for selection of mutants capable of selenocysteine-specific suppression. The single colonies that arose covered a range of ampicillin concentrations. […] Of these tRNA^Sec variants, only G7-C66:U49-G65:C50-U64 was detected at the two highest ampicillin concentration (200 and 250 μg·ml^−1).
The tRNA^Sec antideterminant library was generated by enzymatic inverse PCR using oligonucleotide primers (Table 2) to randomize the six positions identified as the main antideterminant for EF-Tu binding. Following self ligation for 16 hours, DNA was ethanol precipitated with GlycoBlue (Ambion) and transformed by electroporation into E. coli DHΔabc containing the plasmids pNMC-A C69X and pRSF-eSelA. Transformants were diluted in 200 ml LB medium containing 12.5 μg·mL^−1 Zeocin, 6.25 μg·mL^−1 tetracycline and 25 μg·mL^−1 kanamycin and incubated overnight. Following overnight growth, cells were diluted 1/50 in LB medium containing 6.25 μg·mL^−1 Zeocin, 3.75 μg·mL^−1 tetracycline, 12.5 μg·mL^−1 kanamycin, 1 μM Na2SeO3 and 20 μg·mL^−1 L-cysteine and incubated for one hour. A series of 250 μl aliquots of cells were plated on LB agar containing 6.25 μg·mL^−1 Zeocin, 3.75 μg·mL^−1 tetracycline, 12.5 […], 1 μM Na2SeO3 and 20 μg·mL^−1 L-cysteine and 50-300 μg·mL^−1 ampicillin in 50 μg·mL^−1 increments. After 20 hours at 37° C. individual colonies were observed on plates containing 50-200 μg·mL^−1 ampicillin. Plasmid DNA was isolated from a selection of colonies from all plates and tRNA^Sec mutations determined by Sanger sequencing.
NotI/NcoI fragments containing tRNA^SecUx were subcloned into pRSF-eSelA to generate pRSF-UX-eSelA. pRSF-U-eSelA variants described in Table 1 were transformed into E. coli DHΔabc containing the reporter plasmid pNMC-A C69TAG. DHΔabc cells containing pNMC-A and pRSFDuet-1 were used as a positive control. DHΔabc cells harboring pNMC-A C69S and pRSF-UX-eSelA, and pNMC-A C69TAG and pRSF-UX-ΔSelA were used as controls for selenocysteine dependent β-lactamase activity. Transformants were cultured overnight in LB medium containing 6.25 μg·mL^−1 tetracycline, 25 μg·mL^−1 kanamycin, 1 μM Na2SeO3 and 20 […]. Following overnight growth, cells were diluted 1/10 in LB medium containing antibiotics, selenite and L-cysteine and incubated for three hours. […]

Substance	ampicillin concentration supporting growth (β-lactamase activity)	ampicillin concentration at which the tRNA variant was detected in library selection (antideterminant library, pNMC-A C69X, pRSF-eSelA)
tRNA^SecUx: Evolved E. coli tRNA^Sec variant with the G7-C66:U49-G65:C50-U64 antideterminant sequence and CUA anticodon	up to 400 μg·ml^−1	200 µg/mL and 250 µg/mL
tRNA^UTu (GGAAGATGTGGCCGAGCGGTTGAAGGCACCGGT; expressed or natural sequence)	75 µg/mL	

From patent US12344879B2, “Transgenic bacteria with expanded amino acid usage and nucleic acid molecules for use in the same” (BOARD OF REGENTS, THE UNIVERSITY OF TEXAS SYSTEM, priority 2015, dated 2025)
